# Results reported in patent publication US20240190880A1 (THE REGENTS OF THE UNIVERSITY OF MICHIGAN, priority 2021, published 2024).
# Like-named read-outs stand apart in the source and are kept apart here.
# Target: T1, ER (Homo sapiens, UniProt P03372)
# T1 construct: host or cells: T47D and MCF7 human breast cancer cells
# T1 sequence (P03372 1-595): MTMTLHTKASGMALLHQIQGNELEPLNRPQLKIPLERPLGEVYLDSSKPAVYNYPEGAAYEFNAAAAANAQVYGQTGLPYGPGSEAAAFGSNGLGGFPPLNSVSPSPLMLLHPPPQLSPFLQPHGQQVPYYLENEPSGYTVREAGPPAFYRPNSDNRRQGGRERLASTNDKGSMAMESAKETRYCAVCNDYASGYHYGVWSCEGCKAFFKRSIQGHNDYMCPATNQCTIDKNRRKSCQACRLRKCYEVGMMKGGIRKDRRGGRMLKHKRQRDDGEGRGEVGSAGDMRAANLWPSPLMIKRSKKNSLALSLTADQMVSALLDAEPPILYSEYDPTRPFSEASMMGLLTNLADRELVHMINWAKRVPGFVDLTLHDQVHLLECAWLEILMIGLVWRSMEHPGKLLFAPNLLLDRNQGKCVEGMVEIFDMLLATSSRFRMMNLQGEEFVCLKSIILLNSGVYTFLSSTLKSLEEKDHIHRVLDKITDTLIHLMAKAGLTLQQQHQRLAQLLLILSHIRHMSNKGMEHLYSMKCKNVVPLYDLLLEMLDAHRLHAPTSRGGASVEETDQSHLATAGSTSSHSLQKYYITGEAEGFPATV
# Test: ER degradation activity, in-cell western blot analysis in T47D cells
# Format: cell-based
# Outline: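 Human T47D cells (DMEM, 10% FBS) are dosed for 16 h with 0.5% DMSO final and probed with 680- and 800-dye secondary antibodies. Relative ER is calculated against vehicle and untreated wells.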
# [1] = 16 hours, Table A does not say which cell line (T47D or MCF7), read-out: Potency (DC50)
# [2] = compounds 16 hours, Table A does not say whether T47D or MCF7, read-out: Potency (DC50)
SMILES,DC50 [1] [nM],DC50 [2] [nM]
"C[C@@H]1Cc2c([nH]c3ccccc23)[C@@H](c2c(F)cc(N3CC4(CCN(C(=O)CN5Cc6cc7c(cc6C5)C(=O)N(C5CCC(=O)NC5=O)C7=O)C4)C3)cc2F)N1CC(F)F (stereo partly drawn) [E 77, 6-(2-(2-(4-((1R,3R)-2-(2,2-difluoroethyl)-3-methyl-2,3,4,9-tetrahydro-1H-pyrido[3,4-b]indol-1-yl)-3,5-difluorophenyl)-2,6-diazaspiro[3.4]octan-6-yl)-2-oxoethyl)-2-(2,6-dioxopiperidin-3-yl)-6,7-dihydropyrrolo[3,4-f]isoindole-1,3(2H,5H)-dione]",< 10,
"O=C1CCC(N2C(=O)c3cc4c(cc3C2=O)CN(CC2CCN(CC3CCN(c5ccc([C@@H]6c7ccc(O)cc7CC[C@@H]6c6ccccc6)cc5)CC3)CC2)C4)C(=O)N1 (stereo partly drawn) [E 217, 2-(2,6-dioxopiperidin-3-yl)-6-((1-((1-(4-((1R,2S)-6-hydroxy-2-phenyl-1,2,3,4-tetrahydronaphthalen-1-yl)phenyl)piperidin-4-yl)methyl)piperidin-4-yl)methyl)-6,7-dihydropyrrolo[3,4-f]isoindole-1,3(2H,5H)-dione]",> 100,
"C[C@@H]1Cc2cc(O)ccc2[C@@H](c2c(F)cc(N3CCC4(CN(C(=O)CN5Cc6cc7c(cc6C5)C(=O)N(C5CCC(=O)NC5=O)C7=O)C4)C3)cc2F)N1CC(F)F (stereo partly drawn) [E 44, 6-(2-(6-(4-((1S,3R)-2-(2,2-difluoroethyl)-6-hydroxy-3-methyl-1,2,3,4-tetrahydroisoquinolin-1-yl)-3,5-difluorophenyl)-2,6-diazaspiro[3.4]octan-2-yl)-2-oxoethyl)-2-(2,6-dioxopiperidin-3-yl)-6,7-dihydropyrrolo[3,4-f]isoindole-1,3(2H,5H)-dione]",10 to 100,
"O=C1CCC(N2C(=O)c3cc4c(cc3C2=O)CN(CC2CCN(CC3CN(c5ccc([C@@H]6c7ccc(O)cc7CC[C@@H]6c6ccc(F)cc6)cc5)C3)CC2)C4)C(=O)N1 (stereo partly drawn) [E 277, 2-(2,6-dioxopiperidin-3-yl)-6-((1-((1-(4-((1R,2S)-2-(4-fluorophenyl)-6-hydroxy-1,2,3,4-tetrahydronaphthalen-1-yl)phenyl)azetidin-3-yl)methyl)piperidin-4-yl)methyl)-6,7-dihydropyrrolo[3,4-f]isoindole-1,3(2H,5H)-dione]",> 100,
"C[C@@H]1Cc2c([nH]c3ccccc23)[C@@H](c2c(F)cc(C3=CCC4(CC3)CCN(C(=O)CN3Cc5cc6c(cc5C3)C(=O)N(C3CCC(=O)NC3=O)C6=O)CC4)cc2F)N1CC(F)F (stereo partly drawn) [E 476, 6-(2-(9-(4-((1R,3R)-2-(2,2-difluoroethyl)-3-methyl-2,3,4,9-tetrahydro-1H-pyrido[3,4-b]indol-1-yl)-3,5-difluorophenyl)-3-azaspiro[5.5]undec-8-en-3-yl)-2-oxoethyl)-2-(2,6-dioxopiperidin-3-yl)-6,7-dihydropyrrolo[3,4-f]isoindole-1,3(2H,5H)-dione]",,10 to 100
"O=C1CCC(N2C(=O)c3cc4c(cc3C2=O)CN(CC(=O)N2CC(n3cc(-c5ccc([C@@H]6c7ccc(O)cc7CC[C@@H]6c6ccccc6)cc5)cn3)C2)C4)C(=O)N1 (stereo partly drawn) [E 215, 2-(2,6-dioxopiperidin-3-yl)-6-(2-(3-(4-(4-((1R,2S)-6-hydroxy-2-phenyl-1,2,3,4-tetrahydronaphthalen-1-yl)phenyl)-1H-pyrazol-1-yl)azetidin-1-yl)-2-oxoethyl)-6,7-dihydropyrrolo[3,4-f]isoindole-1,3(2H,5H)-dione]",> 100,
"C[C@@H]1Cc2cc(O)ccc2[C@@H](c2c(F)cc(N3CCC4(CCN(C(=O)CN5Cc6cc7c(cc6C5)C(=O)N(C5CCC(=O)NC5=O)C7=O)CC4)CC3)cc2F)N1CC(F)(F)F (stereo partly drawn) [E 225, 6-(2-(9-(3,5-difluoro-4-((1S,3R)-6-hydroxy-3-methyl-2-(2,2,2-trifluoroethyl)-1,2,3,4-tetrahydroisoquinolin-1-yl)phenyl)-3,9-diazaspiro[5.5]undecan-3-yl)-2-oxoethyl)-2-(2,6-dioxopiperidin-3-yl)-6,7-dihydropyrrolo[3,4-f]isoindole-1,3(2H,5H)-dione]",> 100,
C[C@@H]1Cc2cc(O)ccc2[C@@H](c2c(F)cc(N3CCC4(CCN(C(=O)CN5Cc6cc7c(cc6C5)C(=O)N(C5CCC(=O)NC5=O)C7)C4)CC3)cc2F)N1CC(C)(F)F (some centres unmarked) [E 138],10 to 100,
"C[C@@H]1Cc2c([nH]c3ccccc23)[C@@H](c2c(F)cc(C3CCC(C(=O)N4CCC(N5Cc6cc7c(cc6C5)C(=O)N(C5CCC(=O)NC5=O)C7=O)CC4)CC3)cc2F)N1CC(F)(F)CO (stereo partly drawn) [E 400, 6-(1-(4-(4-((1R,3R)-2-(2,2-difluoro-3-hydroxypropyl)-3-methyl-2,3,4,9-tetrahydro-1H-pyrido[3,4-b]indol-1-yl)-3,5-difluorophenyl)cyclohexane-1-carbonyl)piperidin-4-yl)-2-(2,6-dioxopiperidin-3-yl)-6,7-dihydropyrrolo[3,4-f]isoindole-1,3(2H,5H)-dione]",,> 100
"O=C1CCC(N2C(=O)c3cc4c(cc3C2=O)CN(C(=O)CN2CCC3(CC2)CCN(c2c(F)cc([C@@H]5c6ccc(O)cc6CC[C@@H]5c5ccccc5)cc2F)C3)C4)C(=O)N1 (mixture of isomers) [E 155, Rac-6-(2-(2-(2,6-difluoro-4-((1R,2S)-6-hydroxy-2-phenyl-1,2,3,4-tetrahydronaphthalen-1-yl)phenyl)-2,8-diazaspiro[4.5]decan-8-yl)acetyl)-2-(2,6-dioxopiperidin-3-yl)-6,7-dihydropyrrolo[3,4-f]isoindole-1,3(2H,5H)-dione]",> 100,
"CN(C1CCN(c2ccc([C@@H]3c4ccc(O)cc4CC[C@@H]3c3ccccc3)cc2)CC1)N1CCC(CN2Cc3cc4c(cc3C2)C(=O)N(C2CCC(=O)NC2=O)C4)CC1 (mixture of isomers) [E 300, 3-(6-((1-((1-(4-((1R,2S)-6-hydroxy-2-phenyl-1,2,3,4-tetrahydronaphthalen-1-yl)phenyl)piperidin-4-yl)(methyl)amino)piperidin-4-yl)methyl)-1-oxo-3,5,6,7-tetrahydropyrrolo[3,4-f]isoindol-2(1H)-yl)piperidine-2,6-dione]",> 100,
"O=C1CCC(N2C(=O)c3cc4c(cc3C2=O)CN(Cc2ccc(N3CC(Nc5ccc([C@@H]6c7ccc(O)cc7CC[C@@H]6c6ccccc6)cc5)C3)nc2)C4)C(=O)N1 (stereo partly drawn) [E 373, 2-(2,6-dioxopiperidin-3-yl)-6-((6-(3-((4-((1R,2S)-6-hydroxy-2-phenyl-1,2,3,4-tetrahydronaphthalen-1-yl)phenyl)amino)azetidin-1-yl)pyridin-3-yl)methyl)-6,7-dihydropyrrolo[3,4-f]isoindole-1,3(2H,5H)-dione]",> 100,
"O=C1CCC(N2C(=O)c3cc4c(cc3C2=O)CN(CC(=O)N2CCC3(CC2)CCN(c2ccc(C(=C(CCCl)c5ccccc5)c5ccc(O)cc5)cc2)C3)C4)C(=O)N1 (centres unmarked) [E 190, 6-(2-(2-(4-(4-chloro-1-(4-hydroxyphenyl)-2-phenylbut-1-en-1-yl)phenyl)-2,8-diazaspiro[4.5]decan-8-yl)-2-oxoethyl)-2-(2,6-dioxopiperidin-3-yl)-6,7-dihydropyrrolo[3,4-f]isoindole-1,3(2H,5H)-dione]",10 to 100,
"CN(C1CCN(c2ccc([C@@H]3c4ccc(O)cc4CC[C@@H]3c3ccccc3)cc2)CC1)C1CC(C(=O)N2Cc3cc4c(cc3C2)C(=O)N(C2CCC(=O)NC2=O)C4=O)C1 (stereo partly drawn) [E 362, 2-(2,6-dioxopiperidin-3-yl)-6-(3-((1-(4-((1R,2S)-6-hydroxy-2-phenyl-1,2,3,4-tetrahydronaphthalen-1-yl)phenyl)piperidin-4-yl)(methyl)amino)cyclobutane-1-carbonyl)-6,7-dihydropyrrolo[3,4-f]isoindole-1,3(2H,5H)-dione]",> 100,
"C[C@@H]1Cc2c([nH]c3ccccc23)[C@@H](c2c(F)cc(-c3ccc(C(=O)N4CCC(N5Cc6cc7c(cc6C5)C(=O)N(C5CCC(=O)NC5=O)C7=O)CC4)cc3)cc2F)N1CC(F)F (stereo partly drawn) [E 347, 6-(1-(4′-((1R,3R)-2-(2,2-difluoroethyl)-3-methyl-2,3,4,9-tetrahydro-1H-pyrido[3,4-b]indol-1-yl)-3′,5′-difluoro-[1,1′-biphenyl]-4-carbonyl)piperidin-4-yl)-2-(2,6-dioxopiperidin-3-yl)-6,7-dihydropyrrolo[3,4-f]isoindole-1,3(2H,5H)-dione]",< 10,
"C[C@@H]1Cc2cc(O)ccc2[C@@H](c2ccc(C3CCC(C(=O)N4CCC(N5Cc6cc7c(cc6C5)C(=O)N(C5CCC(=O)NC5=O)C7=O)CC4)CC3)cc2F)N1CC(F)F (stereo partly drawn) [E 317, 6-(1-(4-(4-((1S,3R)-2-(2,2-difluoroethyl)-6-hydroxy-3-methyl-1,2,3,4-tetrahydroisoquinolin-1-yl)-3-fluorophenyl)cyclohexane-1-carbonyl)piperidin-4-yl)-2-(2,6-dioxopiperidin-3-yl)-6,7-dihydropyrrolo[3,4-f]isoindole-1,3(2H,5H)-dione]",10 to 100,
"C[C@@H]1Cc2c([nH]c3ccccc23)[C@@H](c2cnc(N3CCC4(CC3)CC(CN3Cc5cc6c(cc5C3)C(=O)N([C@H]3CCC(=O)NC3=O)C6=O)C4)nc2)N1CC(F)(F)CO [E 512, 6-((7-(5-((1R,3R)-2-(2,2-difluoro-3-hydroxypropyl)-3-methyl-2,3,4,9-tetrahydro-1H-pyrido[3,4-b]indol-1-yl)pyrimidin-2-yl)-7-azaspiro[3.5]nonan-2-yl)methyl)-2-((S)-2,6-dioxopiperidin-3-yl)-6,7-dihydropyrrolo[3,4-f]isoindole-1,3(2H,5H)-dione]",,> 100
